Assay results published in paper PMC2970562, “High-Affinity Inhibitors of Human NAD^+-Dependent 15-Hydroxyprostaglandin Dehydrogenase: Mechanisms of Inhibition and Structure-Activity Relationships” (PLoS ONE, 2010).

Experiments:
human 15-PGDH [1] = molecular target: T1, human 15-PGDH (Homo sapiens, UniProt P15428); experiment: Differential scanning fluorimetry (DSF), thermal stabilization; type: binding; conditions: 1 µM protein, compound 50 or 250 µM, N/A = no unfolding transition observed in DSF; for ∆Tm [°C] NAD+: with 200 µM NAD+; for ∆Tm [°C] NADH: with 200 µM NADH; for ∆Tm [°C] apo: without cofactor
T1 construct: comprising residues 3–256 of the human HPGD gene (GenBank identifier: 1203982); His6 (GHHHHHH, behind the TEV site) (C, cleaved yes); made in house; host or cells: E. coli BL21(DE3)-R3
T1 sequence (P15428 3-256): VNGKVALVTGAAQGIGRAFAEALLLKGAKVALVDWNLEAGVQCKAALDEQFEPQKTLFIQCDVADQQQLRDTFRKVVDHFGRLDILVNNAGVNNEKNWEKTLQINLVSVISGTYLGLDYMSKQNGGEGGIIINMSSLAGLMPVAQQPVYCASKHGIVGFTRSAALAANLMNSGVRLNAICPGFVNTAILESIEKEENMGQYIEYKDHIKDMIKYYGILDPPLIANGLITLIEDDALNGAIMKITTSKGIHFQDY
Experimental: A correlation between the ΔTm and the inhibitory potency has been shown in a number of protein-ligand systems, particularly for kinases [32]–[34].
Studies to assess the thermal stability of human 15-PGDH in presence of compounds were performed as described previously, with variations. Briefly, the protein was diluted to a final assay concentration of 1 µM in 100 mM Tris buffer pH 8.0, containing 0.01% Tween-20 and 1∶1000 SYPRO orange dye (Invitrogen). […] Compounds were added at a ratio of 1∶5 from appropriate stock solutions in 10% (v/v) DMSO to comprise either 50 or 250 µM final concentrations. Heat denaturation curves were recorded using a RT-PCR instrument (Mx3005p, Agilent) applying a temperature gradient of 2°C/min. […] 2.5 (ftp://ftp.sgc.ox.ac.uk/pub/biophysics) and PRISM 5.0 (GraphPad Software, Inc.).

human 15-PGDH [2] = molecular target: T1, human 15-PGDH; experiment: qHTS and 24-point re-test: fluorescence assay of NAD+ reduction to NADH on PGE2 oxidation (PubChem AID 894); type: biochemical; conditions: potency in 24-point titrations on re-test; 20 nM 15-PGDH, 1 mM NAD+, 30 µM PGE2, pH 8.0; read-out: qHTS IC50
Experimental: The assay was miniaturized to a 4-µL volume in 1536-well format: enzyme (3 µL) was dispensed first, followed by a pintool transfer of library compounds dissolved in DMSO. After equilibration, a substrate dispense (1 µL) initiated the enzymatic reaction (see Materials and Methods, for detailed protocol description). […] Hits associated with low-efficacy (<40% maximum inhibition), incomplete curves, as well as those displaying only a single-point inhibition at the top concentration tested were eliminated from further consideration. Similarly, the collection of real-time kinetic data allowed the autofluorescence of each compound to be evaluated by comparing the initial fluorescence read at top concentration with the mean value of uninhibited assay controls: compounds whose top-concentration initial well fluorescence exceeded six standard deviations over the mean were flagged as potential autofluorescent artifacts, [28] (see example in supplementary information Figure S1E). The complete screening and followup results are available in PubChem (PubChem Assay ID 894).
The enzymatic reaction was performed in 50 mM Tris-HCl pH 8.0, containing 0.01% Tween 20. […] The high-throughput screen was performed on a fully integrated robotic system (Kalypsys Inc, San Diego, CA) as described elsewhere. Library compounds, arrayed as seven-point inter-plate concentration series, were screened from the lowest (3.5 nM) to the highest (57.5 µM) concentration, with plates containing DMSO only, serving to note any systematic drifts in the signal, interspersed evenly throughout the screen (approximately every 50 plates). Briefly, 3 µL of reagents were dispensed into 1536-well Greiner black solid-bottom assay plates using integrated nanoliter solenoid-technology dispensers. Compounds and controls (23 nL) were transferred via Kalypsys pintool equipped with 1,536-pin array (10-nL slotted pins; V&P Scientific, Palo Alto, CA). After a 15-minute incubation (to allow for interaction between compound and enzyme), a 1-µL substrate addition step initiated the reaction. Kinetic data were collected on a ViewLux High-throughput CCD imager (Perkin-Elmer) equipped with standard UV fluorescence optics (exc. 340 nm, em. 450 nm).
Starting fluorescence intensity and the change in fluorescence over the two-minute initial rate period were recorded for every well. Screening data were normalized against no-enzyme (64 wells, columns 3 and 4) and no-compound (32 wells located in column 1) controls, and concentration-response relationships were derived as described previously. A four-parameter Hill equation [47] was fitted to the concentration-response data using publicly available algorithms (http://www.ncgc.nih.gov/pub/openhts/curvefit/).

[3] = system: recombinant human placental 15-PGDH; conditions: in words ref 22; cited from earlier work

Row | ∆Tm [°C] NAD+ (human 15-PGDH [1]) | ∆Tm [°C] NADH (human 15-PGDH [1]) | ∆Tm [°C] apo (human 15-PGDH [1]) | IC50 (human 15-PGDH [2]) | Compound | potency as inhibitor of 15-PGDH [3]
1 | 2.4 °C | -0.4 °C | -1.8 °C | 2510 nM | O=c1c2ccccc2sn1-c1cc(S(=O)(=O)N2CCOCC2)ccc1N1CCCC1 [Compound 71] | –
2 | 4.0 °C | -7.6 °C | -7.4 °C | 2510 nM | CN(CCc1ccccn1)CC(=O)Nc1ccc(OC(F)(F)F)cc1 [Compound 78] | –
3 | – | – | -4.1 °C | 1120 nM | Cc1cc(=O)oc2cc(OCC(=O)N3CCCc4ccccc43)ccc12 [Compound 79] | –
4 | 4.5 °C | 0.2 °C | – | 501 nM | Cc1ccc(-c2nnc(S)n2N=CC=Cc2ccccc2[N+](=O)[O-])cc1 [Compound 80] | –
5 | – | – | – | – | COc1ccc2c(c1)c(CC(=O)O)c(C)n2C(=O)c1ccc(Cl)cc1 [indomethacin] | micromolar potencies
6 | – | – | – | – | O=C(O)c1cccnc1Nc1cccc(C(F)(F)F)c1 [niflumic acid] | micromolar potencies
7 | – | – | – | – | CC1=C(CC(=O)O)c2cc(F)ccc2/C1=C\c1ccc([S+](C)[O-])cc1 (centres unmarked) [sulindac] | micromolar potencies

Row | Compound | ∆Tm [°C] NAD+ (human 15-PGDH [1]) | ∆Tm [°C] NADH (human 15-PGDH [1]) | ∆Tm [°C] apo (human 15-PGDH [1]) | IC50 (human 15-PGDH [2]) | potency as inhibitor of 15-PGDH [3]
8 | CNC(C)C(O)c1ccccc1.O=S(=O)(O)O (centres unmarked) [Compound 84] | 1.5 °C | -0.1 °C | 0.7 ± 0.1 °C | 1410 nM | –
